Measurements from US9303016B2, “Derivatives of aza adamantane and uses thereof” (CONNEXIOS LIFE SCIENCES PVT. LTD., priority 2011, dated 2016).

Molecular target: T1, human full length HSD11β1 (Homo sapiens, UniProt P28845)
T1 construct: transient expression of human full length HSD11β1 expression vector; host or cells: CHO cells, transient transfection
Experiment: In Vitro HSD11β1 Inhibition Assay
Format: cell-based
Conditions: CHO cells transiently expressing human HSD11β1; 200 nM cortisone+500 uM NADPH overnight; cortisone to cortisol by LC/MS-MS; read-out: 11βHSD1 (IC50)
Method: In Vitro HSD11β1 Inhibition Assay:
CHO cells were maintained in Dulbecco's modified Eagle's medium/nutrient mixture F-12 containing 5% fetal bovine serum (v/v) and 2 mM glutamine. Cells were cultured at 37° C. with 5% CO2. For transient expression of human full length HSD11β1 expression vector (OriGene Technologies), cells were seeded at a density of 2×10^5 cells/well in a 6-well plate. Transfection was done using Turbofectin8 reagent (OriGene Technologies), according to the protocol provided with the reagent. After 24 hours post-transfection, cells were trypsinized and pooled together before they were re-seeding to 96-well plate at a density of 40000 cells/well. 24 hours after re-seeding, cells were incubated with 200 nM cortisone+500 uM NADPH (or along with small molecule inhibitors) overnight. The enzymatic activity or inhibition of enzyme activity was measured by estimating the conversion of cortisone to cortisol by LC/MS-MS method. The IC50 in nM was calculated from a 8 point log scale of concentration versus inhibition.

T1 sequence (P28845 whole entry): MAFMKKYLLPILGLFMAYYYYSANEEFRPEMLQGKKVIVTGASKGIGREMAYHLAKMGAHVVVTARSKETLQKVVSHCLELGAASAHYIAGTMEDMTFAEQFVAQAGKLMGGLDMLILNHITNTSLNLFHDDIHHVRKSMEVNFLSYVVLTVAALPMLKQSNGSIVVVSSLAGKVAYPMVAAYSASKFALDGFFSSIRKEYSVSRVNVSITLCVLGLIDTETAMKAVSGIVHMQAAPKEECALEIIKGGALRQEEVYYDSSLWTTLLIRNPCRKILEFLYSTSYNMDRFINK

Structure (SMILES)	IC50
COC12CC3CC(C1)N(C(=O)CC(C)c1c[nH]c4cccc(F)c14)C(C3)C2 (single isomer, unassigned) [Example 30, 3-(4-fluoro-1H-indol-3-yl)-1-(5-methoxy-2-azatricyclo[3.3.1.1^3,7]dec-2-yl)butan-1-one]	150 to 200 nM
COC12CC3CC(C1)N(C(=O)CC(C)c1c[nH]c4cccc(F)c14)C(C3)C2 (single isomer, unassigned) [Example 31, 3-(4-fluoro-1H-indol-3-yl)-1-(5-methoxy-2-azatricyclo[3.3.1.1^3,7]dec-2-yl)butan-1-one]	< 100 nM
CC(CC(=O)N1C2CC3CC1CC(C(=O)O)(C3)C2)c1c[nH]c2cccc(C3CC3)c12 (single isomer, unassigned) [Example 53, 2-[3-(4-cyclopropyl-1H-indol-3-yl)butanoyl]-2-azatricyclo[3.3.1.1^3,7]decane-5-carboxylic acid]	> 250 nM
CC(CC(=O)N1C2CC3CC1CC(c1nnn[nH]1)(C3)C2)c1c[nH]c2cccc(Cl)c12 (stereo not shown) [Compound 76, 3-(4-chloro-1H-indol-3-yl)-1-[5-(1H-tetrazol-5-yl)-2-azatricyclo[3.3.1.1^3,7]dec-2-yl]butan-1-one]	> 250 nM
Cc1cccc2[nH]cc(C(C)CC(=O)N3C4CC5CC3CC(c3nnn[nH]3)(C5)C4)c12 (stereo not shown) [Compound 77, 3-(4-methyl-1H-indol-3-yl)-1-[5-(1H-tetrazol-5-yl)-2-azatricyclo[3.3.1.1^3,7]dec-2-yl]butan-1-one]	> 250 nM
CC(CC(=O)N1C2CC3CC1CC(O)(C3)C2)c1cn(CCO)c2cccc(C3CC3)c12 (stereo not shown) [Compound 80, 3-[4-cyclopropyl-1-(2-hydroxyethyl)-1H-indol-3-yl]-1-(5-hydroxy-2-azatricyclo[3.3.1.1^3,7]dec-2-yl)butan-1-one]	> 250 nM
O=C(CC(c1ccccc1)c1c[nH]c2cccc(F)c12)N1C2CC3CC1CC(O)(C3)C2 (stereo not shown) [Compound 83, 3-(4-fluoro-1H-indol-3-yl)-1-(5-hydroxy-2-azatricyclo[3.3.1.1^3,7]dec-2-yl)-3-phenylpropan-1-one]	< 100 nM
Cc1cccc2[nH]cc(C(CC(=O)N3C4CC5CC3CC(O)(C5)C4)c3ccc(F)cc3)c12 (stereo not shown) [Compound 93, 3-(4-fluorophenyl)-1-(5-hydroxy-2-azatricyclo[3.3.1.1^3,7]dec-2-yl)-3-(4-methyl-1H-indol-3-yl)propan-1-one]	> 250 nM
O=C(CC(c1ccccc1)c1c[nH]c2cc(F)ccc12)N1C2CC3CC1CC(O)(C3)C2 (stereo not shown) [Compound 94, 3-(6-fluoro-1H-indol-3-yl)-1-(5-hydroxy-2-azatricyclo[3.3.1.1^3,7]dec-2-yl)-3-phenylpropan-1-one]	< 100 nM
O=C(CC(c1ccc(F)cc1F)c1c[nH]c2ccccc12)N1C2CC3CC1CC(O)(C3)C2 (stereo not shown) [Compound 96, 3-(2,4-difluorophenyl)-1-(5-hydroxy-2-azatricyclo[3.3.1.1^3,7]dec-2-yl)-3-(1H-indol-3-yl)propan-1-one]	100 to 150 nM
O=C(CC(c1ccc(F)cc1)c1c[nH]c2cccc(F)c12)N1C2CC3CC1CC(O)(C3)C2 (stereo not shown) [Compound 99, 3-(4-fluoro-1H-indol-3-yl)-3-(4-fluorophenyl)-1-(5-hydroxy-2-azatricyclo[3.3.1.1^3,7]dec-2-yl)propan-1-one]	< 100 nM
Cc1cccc2[nH]cc(C(C)CC(=O)N3C4CC5CC3CC(F)(C5)C4)c12 (stereo not shown) [Compound 104, 1-(5-fluoro-2-azatricyclo[3.3.1.1^3,7]dec-2-yl)-3-(4-methyl-1H-indol-3-yl)butan-1-one]	< 100 nM
CC(CC(=O)N1C2CC3CC(C2)CC1C3)c1nc2ccccc2s1 (stereo not shown) [Compound 105, 1-(2-azatricyclo[3.3.1.1^3,7]dec-2-yl)-3-(1,3-benzothiazol-2-yl)butan-1-one]	< 100 nM
CC(CC(=O)N1C2CC3CC1CC(F)(C3)C2)c1nc2ccccc2s1 (stereo not shown) [Compound 106, 3-(1,3-benzothiazol-2-yl)-1-(5-fluoro-2-azatricyclo[3.3.1.1^3,7]dec-2-yl)butan-1-one]	100 to 150 nM
O=C(CC(c1ccccc1)c1nc2ccccc2s1)N1C2CC3CC1CC(O)(C3)C2 (stereo not shown) [Compound 107, 3-(1,3-benzothiazol-2-yl)-1-(5-hydroxy-2-azatricyclo[3.3.1.1^3,7]dec-2-yl)-3-phenylpropan-1-one]	> 250 nM
O=C(CC(c1ccccc1)c1nc2ccccc2s1)N1C2CC3CC1CC(F)(C3)C2 (stereo not shown) [Compound 108, 3-(1,3-benzothiazol-2-yl)-1-(5-fluoro-2-azatricyclo[3.3.1.1^3,7]dec-2-yl)-3-phenylpropan-1-one]	> 250 nM

Now from value to molecule:

IC50	Structure (SMILES)
200 to 250 nM	CC(CC(=O)N1C2CC3CC1CC(O)(C3)C2)c1c[nH]c2cccc(F)c12 (single isomer, unassigned) [Example 28, 3-(4-fluoro-1H-indol-3-yl)-1-(5-hydroxy-2-azatricyclo[3.3.1.1^3,7]dec-2-yl)butan-1-one]
200 to 250 nM	CC(CC(=O)N1C2CC3CC1CC(O)(C3)C2)c1c[nH]c2cccc(Cl)c12 (single isomer, unassigned) [Example 36, 3-(4-chloro-1H-indol-3-yl)-1-(5-hydroxy-2-azatricyclo[3.3.1.1^3,7]dec-2-yl)butan-1-one]
< 100 nM	CC(CC(=O)N1C2CC3CC1CC(O)(C3)C2)c1c[nH]c2cccc(Cl)c12 (single isomer, unassigned) [Example 37, 3-(4-chloro-1H-indol-3-yl)-1-(5-hydroxy-2-azatricyclo[3.3.1.1^3,7]dec-2-yl)butan-1-one]
< 100 nM	Cc1cccc2[nH]cc(C(C)CC(=O)N3C4CC5CC3CC(O)(C5)C4)c12 (single isomer, unassigned) [Example 49, 1-(5-hydroxy-2-azatricyclo[3.3.1.1^3,7]dec-2-yl)-3-(4-methyl-1H-indol-3-yl)butan-1-one]
< 100 nM	O=C(CC(c1ccc(F)cc1)c1c[nH]c2ccccc12)N1C2CC3CC1CC(O)(C3)C2 (stereo not shown) [Compound 73, 3-(4-fluorophenyl)-1-(5-hydroxy-2-azatricyclo[3.3.1.1^3,7]dec-2-yl)-3-(1H-indol-3-yl)propan-1-one]
> 250 nM	Cc1cccc2[nH]cc(C(CC(=O)N3C4CC5CC3CC(O)(C5)C4)C(C)C)c12 (stereo not shown) [Compound 74, 1-(5-hydroxy-2-azatricyclo[3.3.1.1^7]dec-2-yl)-4-methyl-3-(4-methyl-1H-indol-3-yl)pentan-1-one]
200 to 250 nM	CC(CC(=O)N1C2CC3CC1CC(O)(C3)C2)c1c[nH]c2ccc(F)cc12 (stereo not shown) [Compound 75, 3-(5-fluoro-1H-indol-3-yl)-1-(5-hydroxy-2-azatricyclo[3.3.1.1^3,7]dec-2-yl)butan-1-one]
> 250 nM	Cc1cccc2c(C(C)CC(=O)N3C4CC5CC3CC(O)(C5)C4)c[nH]c12 (stereo not shown) [Compound 78, 1-(5-hydroxy-2-azatricyclo[3.3.1.1^3,7]dec-2-yl)-3-(7-methyl-1H-indol-3-yl)butan-1-one]
100 to 150 nM	CC(CC(=O)N1C2CC3CC1CC(O)(C3)C2)c1c[nH]c2cc(F)ccc12 (stereo not shown) [Compound 79, 3-(6-fluoro-1H-indol-3-yl)-1-(5-hydroxy-2-azatricyclo[3.3.1.1^3,7]dec-2-yl)butan-1-one]
200 to 250 nM	CC(CC(=O)N1C2CC3CC1CC(O)(C3)C2)c1nc2ccccc2s1 (stereo not shown) [Compound 84, 3-(1,3-benzothiazol-2-yl)-1-(5-hydroxy-2-azatricyclo[3.3.1.1^3,7]dec-2-yl)butan-1-one]
< 100 nM	CC(CC(=O)N1C2CC3CC(C2)CC1C3)c1c[nH]c2ncccc12 (stereo not shown) [Compound 85]
> 250 nM	CC(CC(=O)N1C2CC3CC1CC(O)(C3)C2)c1c[nH]c2ncccc12 (stereo not shown) [Compound 86, 1-(5-hydroxy-2-azatricyclo[3.3.1.1]dec-2-yl)-3-(1H-pyrrolo[2,3-b]pyridin-3-yl)butan-1-one]
150 to 200 nM	CC(CC(=O)N1C2CC3CC1CC(O)(C3)C2)c1c[nH]c2nccc(Cl)c12 (stereo not shown) [Compound 87, 3-(4-chloro-1H-pyrrolo[2,3-b]pyridin-3-yl)-1-(5-hydroxy-2-azatricyclo[3.3.1.1^3,7]dec-2-yl)butan-1-one]
> 250 nM	Cc1ccnc2[nH]cc(C(C)CC(=O)N3C4CC5CC3CC(O)(C5)C4)c12 (stereo not shown) [Compound 88, 1-(5-hydroxy-2-azatricyclo[3.3.1.1^3,7]dec-2-yl)-3-(4-methyl-1H-pyrrolo[2,3-b]pyridin-3-yl)butan-1-one]
> 250 nM	CC(C)C(CC(=O)N1C2CC3CC1CC(O)(C3)C2)c1c[nH]c2ncccc12 (stereo not shown) [Compound 90, 1-(5-hydroxy-2-azatricyclo[3.3.1.1^3,7]dec-2-yl)-4-methyl-3-(1H-pyrrolo[2,3-b]pyridin-3-yl)pentan-1-one]
> 250 nM	CC(CC(=O)N1C2CC3CC1CC(C(=O)O)(C3)C2)c1c[nH]c2ncccc12 (stereo not shown) [Compound 91, 2-[3-(1H-pyrrolo[2,3-b]pyridin-3-yl)butanoyl]-2-azatricyclo[3.3.1.1^3,7]decane-5-carboxylic acid]
> 250 nM	CC(C)C(CC(=O)N1C2CC3CC1CC(C#N)(C3)C2)c1c[nH]c2ncccc12 (stereo not shown) [Compound 92, 2-[4-methyl-3-(1H-pyrrolo[2,3-b]pyridin-3-yl)pentanoyl]-2-azatricyclo[3.3.1.1^3,7]decane-5-carbonitrile]
100 to 150 nM	O=C(CC(c1c[nH]c2cccc(F)c12)C1CC1)N1C2CC3CC1CC(O)(C3)C2 (stereo not shown) [Compound 95, 3-cyclopropyl-3-(4-fluoro-1H-indol-3-yl)-1-(5-hydroxy-2-azatricyclo[3.3.1.1^3,7]dec-2-yl)propan-1-one]
